Results taken from US9120820B2, “Fluorescent molecular probes for use in assays that measure test compound competitive binding with SAM-utilizing proteins” (CAYMAN CHEMICAL COMPANY, INCORPORATED, priority 2011, dated 2015).

Columns and labels:
[1] = biological target: T1, GLP (Homo sapiens, UniProt Q9H9B1); experiment: Fluorescence polarization saturation binding of fluorescent probe to GLP; settings: saturation-binding format, mean ± SEM, read-out: Sinefungin Probe 1A Affinity
T1 sequence (Q9H9B1 1-1298): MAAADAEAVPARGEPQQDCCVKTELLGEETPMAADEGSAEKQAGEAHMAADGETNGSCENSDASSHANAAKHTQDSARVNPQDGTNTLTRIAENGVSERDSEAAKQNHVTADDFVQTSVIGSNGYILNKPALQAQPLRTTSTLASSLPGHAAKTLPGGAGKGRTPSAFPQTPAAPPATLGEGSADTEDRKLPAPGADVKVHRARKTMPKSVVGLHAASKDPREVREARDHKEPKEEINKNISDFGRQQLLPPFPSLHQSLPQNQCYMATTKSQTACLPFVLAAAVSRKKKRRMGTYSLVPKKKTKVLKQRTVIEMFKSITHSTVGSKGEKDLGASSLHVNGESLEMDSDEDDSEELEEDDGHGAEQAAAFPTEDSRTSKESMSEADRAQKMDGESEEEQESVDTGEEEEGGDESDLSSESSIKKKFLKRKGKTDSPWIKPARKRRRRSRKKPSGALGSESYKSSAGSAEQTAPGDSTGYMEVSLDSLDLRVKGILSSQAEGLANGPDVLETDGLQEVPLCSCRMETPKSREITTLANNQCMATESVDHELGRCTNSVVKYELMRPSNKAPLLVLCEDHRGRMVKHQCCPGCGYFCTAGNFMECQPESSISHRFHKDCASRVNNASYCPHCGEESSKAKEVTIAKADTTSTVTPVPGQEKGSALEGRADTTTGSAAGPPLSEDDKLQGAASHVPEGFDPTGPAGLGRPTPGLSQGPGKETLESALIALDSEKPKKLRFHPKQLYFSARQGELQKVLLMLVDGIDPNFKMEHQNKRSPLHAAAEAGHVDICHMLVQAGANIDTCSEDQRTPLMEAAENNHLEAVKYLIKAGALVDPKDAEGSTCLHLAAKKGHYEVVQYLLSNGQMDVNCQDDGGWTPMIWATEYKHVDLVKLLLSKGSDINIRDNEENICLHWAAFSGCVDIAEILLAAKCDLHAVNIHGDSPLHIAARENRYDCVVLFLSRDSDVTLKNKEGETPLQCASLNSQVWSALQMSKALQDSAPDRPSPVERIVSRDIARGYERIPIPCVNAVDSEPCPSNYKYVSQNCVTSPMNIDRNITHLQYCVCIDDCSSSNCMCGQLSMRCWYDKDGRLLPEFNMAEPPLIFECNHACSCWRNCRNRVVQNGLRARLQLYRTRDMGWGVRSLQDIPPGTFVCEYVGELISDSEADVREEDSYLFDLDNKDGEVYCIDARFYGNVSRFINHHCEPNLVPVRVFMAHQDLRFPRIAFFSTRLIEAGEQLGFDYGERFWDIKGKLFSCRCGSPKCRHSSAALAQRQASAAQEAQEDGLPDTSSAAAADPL
Experimental: Sinefungin Probe 1A was tested for the ability to bind to 16 proteins, including several non-methlytransferase protein controls (Table 2). This probe binds to 4 methyltransferases (SET7/9, G9a, GLP, MLL) with Kd values <2 μM.

[2] = system: MLL; experiment: High-throughput FP Sinefungin Probe 1A binding assay adapted for MLL; settings: MLL 1 μM, FIG. 10
Experimental: Adaptation for GLP and MLL: Assays for probe binding to two other methyltransferases (GLP and MLL) were also adapted to high throughput format. The assay conditions were identical to the SET7/9 assay, however the protein concentration was increased to raise the signal:noise ratio for the assay. For GLP, the protein concentration was raised to 500 nM, while the concentration of MLL was raised to 1 μM. Data were analyzed in GraphPad Prism (v. 5.04) and/or GeneData (v. 9.01).
This assay was also adapted for high throughput format against the methyltransferase MLL (Cayman Catalog Item #10658). Relevant data are illustrated in FIG. 10: The fluorescence polarization (FP) Sinefungin Probe 1A binding assay was adapted to a high-throughput inhibitor screening format for both A) MLL and B) SET7/9. The probe polarization is increased by >120 mp by binding to SET7/9 (30 nM) and by >145 mp by binding to MLL (1 μM). […] Sixty-four replicates were tested for each condition for SET7/9, sixteen replicates were tested for MLL. Z′ factor scores were >0.5 for all conditions tested (SET7/9:sinefungin: 0.71; SAM: 0.72; no SET7/9: 0.69; MLL:sinefungin: 0.72).

Compound: Nc1ncnc2c1ncn2[C@@H]1O[C@H](C[C@@H](N)CC[C@H](N)C(=O)O)[C@@H](OCc2cnnn2CCCCCCNC(=O)OC2CCN(C(=O)c3ccccc3C3=c4cc5c6c(c4Oc4c3cc3c7c4CCCN7CCC3)CCC[N+]=6CCC5)CC2)[C@H]1O [Sinefungin Probe 1A]
- Kd [1]: 0.58 ± 0.05 µM
- increase of probe polarization by binding [2]: > 145 mp
